“And” between values parts separate entries of the source, which are not always exact repeats. Identical values can stand only once. “Also recorded” adds a separate entry of the source.
Columns and labels:
[1] = test system: OPM2 cells; assay: CCK8 cytotoxicity, OPM2 multiple myeloma cells; assay type: cell-based; conditions: Homo sapiens, OPM-2, 72 h
Description: (§1) (1) Cell lines: human multiple myeloma cells (H929 cells, OPM2 cells, U266 cells, OCI-MY5 cells, RPMI 8266 cells) (from ATCC of USA. The cells were passaged and preserved in the applicant's laboratory), were cultured in a 1640 culture medium (containing 10% fetus bovine serum).
(§2) The cells were cultured in 1640 medium (containing 10% fetal bovine serum, pH 7.2) supplemented with 2 mmol/L glutamine. The cells were cultured in a cell culture incubator at 37° C., 5% CO2.
(§3) A single-cell suspension of human multiple myeloma cells (H929 cells, OPM2 cells, U266 cells, OCI-MY5 cells, RPMI 8266 cells) was taken for cell counting, and the cell concentration was adjusted to 2×10^5 cells/mL. 95 μL of the above cell suspension was added into each well of a 96-well culture plate, and then 5 μL of the drug prepared with the medium was added at different concentrations, while the same volume of culture medium was added in the control group. Three parallel wells were set in each group. The plate was subjected to continuous culture for 72 h. 2 hours before the end of the culture, 10 μL of CCK8 reagent was added into each well, and the plate was continued to culture in a CO2 incubator. After 2 hours, the OD value of each well at 450 nm was detected by an automatic microplate reader. […]

[2] = test system: TMD8 cells; assay: CCK8 cytotoxicity, TMD8 lymphoma cells; assay type: cell-based; conditions: Homo sapiens, 72 h
Description: (§4) A single-cell suspension of human multiple myeloma cells (H929 cells, OPM2 cells, U266 cells, OCI-MY5 cells, RPMI 8266 cells) was taken for cell counting, and the cell concentration was adjusted to 2×10^5 cells/mL. 95 μL of the above cell suspension was added into each well of a 96-well culture plate, and then 5 μL of the drug prepared with the medium was added at different concentrations, while the same volume of culture medium was added in the control group. Three parallel wells were set in each group. The plate was subjected to continuous culture for 72 h. 2 hours before the end of the culture, 10 μL of CCK8 reagent was added into each well, and the plate was continued to culture in a CO2 incubator. After 2 hours, the OD value of each well at 450 nm was detected by an automatic microplate reader. Cell viability and inhibition rate were calculated: cell viability (%)=(OD mean of experimental well/OD mean of control well)×100%. Cell inhibition rate (%)=100%−cell viability (%). The fitting function was used to determine the IC50 of the drug concentration when the cell growth was inhibited by 50%. The experiment was in triplicate.
(§5) Cell lines: human lymphoma cells (SUDHL-4 cells, OCI-LY1 cells, OCI-LY8 cells, DB cells, NU-DUL-1 cells, U2932 cells, TMD8 cells)(from ATCC. USA. The cells were passaged and preserved in the applicant's laboratory). IMDM (Gibco Co., USA). […]

[3] = test system: H929 cells; assay: Animal experiment for multiple myeloma: subcutaneous H929 tumors in nude mice; assay type: in vivo, BALB/C nude mice; conditions: for Tumor volume, individual mice No. 1-4 / Tumor volume, mean: caudal vein
Description: (1) Cell line: human multiple myeloma cells (H929 cells) (from ATCC, USA. The cells were passaged and preserved in the applicant's laboratory), were cultured in a 1640 culture medium (containing 10% fetus bovine serum).
(2) Experimental animals: Male BALB/C nude mice (4-6 week old, purchased from Shanghai Sippr-BK laboratory animal Co. Ltd), were housed in an SPF condition (Center Laborotory Animal Room, Shanghai Tenth People's Hospital).
The cells were cultured in 1640 a 1640 culture medium (containing 10% fetus bovine serum, pH 7.2) supplemented with 2 mmol/L glutamine. The resultant was cultured in a incubator at 37° C. under 5% CO2 environment.
(§6) The 1640 medium containing 3.5×10^6 H929 cells was injected subcutaneously into the right axilla of the nude mice, and when the tumors grew to a measurable size, the mice were randomly assigned into the control group and the administration group. The nude mice in the administration group were injected through caudal vein with 4-hydroxy salicylanilide at 50 mg/kg and 100 mg/kg per day. The nude mice in the control group were injected with the same volume of solvent (200 μL, 5% DMSO+4% castor oil+91% normal saline). The tumor sizes were measured every two days (measuring the length and width of the tumor, tumor volume=0.5×(width)^2×length). The mice were sacrificed after a 22-day administration and the tumors were taken for taking photos.

[4] = test system: DB cells; assay: CCK8 cytotoxicity, DB lymphoma cells; assay type: cell-based; conditions: Homo sapiens, 72 h
Description: as §4, §5

[5] = test system: NU-DUL-1 cells; assay: CCK8 cytotoxicity, NU-DUL-1 lymphoma cells; assay type: cell-based; conditions: Homo sapiens, 72 h
Description: as §4, §5

[6] = test system: OCI-MY5 cells; assay: CCK8 cytotoxicity, OCI-MY5 multiple myeloma cells; assay type: cell-based; conditions: Homo sapiens, 72 h
Description: as §1, §2, §3

[7] = test system: U2932 cells; assay: CCK8 cytotoxicity, U2932 lymphoma cells; assay type: cell-based; conditions: Homo sapiens, 72 h
Description: as §4, §5

[8] = test system: OCI-LY8 cells; assay: Animal experiment against lymphoma: subcutaneous OCI-LY8 tumors in nude mice; assay type: in vivo, BALB/C nude mice; conditions: 60 mg/kg every other day, caudal vein, 18 days
Description: (1) Cell lines: human lymphoma cells (OCI-LY8 cells) (from ATCC, USA. The cells were passaged and preserved in the applicant's laboratory) were cultured in IMDM (containing 10% fetus bovine serum).
(2) Experimental animals: referring to Example 2.
as §6, with “IMDM” for “1640 medium”, “3×10^6 OCI-LY8” for “3.5×10^6 H929”, “60” for “50”, “ever other” for “and 100 mg/kg per”, “volume=4π/3×(width/2)^2×(length/2)).” for “volume=0.5×(width)^2×length).”, “18-day” for “22-day”

[9] = test system: OCI-LY8 cells; assay: CCK8 cytotoxicity, OCI-LY8 lymphoma cells; assay type: cell-based; conditions: Homo sapiens, 72 h
Description: as §4, §5

[10] = test system: SUDHL-4 cells; assay: CCK8 cytotoxicity, SUDHL-4 lymphoma cells; assay type: cell-based; conditions: Homo sapiens, SU-DHL-4, 72 h
Description: as §4, §5

[11] = test system: H929 cells; assay: CCK8 cytotoxicity, H929 multiple myeloma cells; assay type: cell-based; conditions: Homo sapiens, NCI-H929, 72 h
Description: as §1, §2, §3

[12] = test system: RPMI 8266 cells; assay: CCK8 cytotoxicity, RPMI 8266 multiple myeloma cells; assay type: cell-based; conditions: Homo sapiens, RPMI8266, 72 h
Description: as §1, §2, §3

[13] = molecular target: T1, Ribonucleotide reductase (RR) (Homo sapiens, UniProt P31350); conditions: shown in studies; cited from earlier work
T1 sequence (P31350 1-389): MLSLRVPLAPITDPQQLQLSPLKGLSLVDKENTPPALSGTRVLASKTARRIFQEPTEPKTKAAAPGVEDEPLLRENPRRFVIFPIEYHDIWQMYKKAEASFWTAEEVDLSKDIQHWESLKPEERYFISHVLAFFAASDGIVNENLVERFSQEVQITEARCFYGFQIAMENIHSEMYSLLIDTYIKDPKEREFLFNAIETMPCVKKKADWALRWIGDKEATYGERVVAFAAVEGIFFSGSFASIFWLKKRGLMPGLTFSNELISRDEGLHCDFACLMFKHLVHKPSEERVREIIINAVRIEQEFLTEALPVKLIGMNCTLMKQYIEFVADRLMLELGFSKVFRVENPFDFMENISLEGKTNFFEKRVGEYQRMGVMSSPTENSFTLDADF

[14] = test system: OCI-LY1 cells; assay: CCK8 cytotoxicity, OCI-LY1 lymphoma cells; assay type: cell-based; conditions: Homo sapiens, 72 h
Description: as §4, §5

[15] = test system: U266 cells; assay: CCK8 cytotoxicity, U266 multiple myeloma cells; assay type: cell-based; conditions: Homo sapiens, U-266, 72 h
Description: as §1, §2, §3

Structure (SMILES): O=C(Nc1ccc(O)cc1)c1ccccc1O
- IC50 [1]: 84 µM
- IC50 [2]: 164 µM
- Tumor volume, individual mice No. 1-4 ([3]; 50 mg/kg per day, day 0): 0.08 cm^3 (2×) and 0.11 cm^3 and 0.10 cm^3
- Tumor volume, mean ([3]; 50 mg/kg per day, day 0): 0.10 cm^3
- Tumor volume, individual mice No. 1-4 ([3]; 50 mg/kg per day, day 2): 0.15 cm^3 (2×) and 0.17 cm^3 and 0.11 cm^3
- Tumor volume, mean ([3]; 50 mg/kg per day, day 2): 0.15 cm^3
- Tumor volume, individual mice No. 1-4 ([3]; 50 mg/kg per day, day 4): 0.24 cm^3 and 0.25 cm^3 and 0.22 cm^3 and 0.14 cm^3
- Tumor volume, mean ([3]; 50 mg/kg per day, day 4): 0.21 cm^3
- Tumor volume, individual mice No. 1-4 ([3]; 50 mg/kg per day, day 6): 0.38 cm^3 (2×) and 0.30 cm^3 and 0.27 cm^3
- Tumor volume, mean ([3]; 50 mg/kg per day, day 6): 0.33 cm^3
- Tumor volume, individual mice No. 1-4 ([3]; 50 mg/kg per day, day 8): 0.58 cm^3 and 0.50 cm^3 and 0.37 cm^3 (2×)
- Tumor volume, mean ([3]; 50 mg/kg per day, day 8): 0.45 cm^3
- Tumor volume, individual mice No. 1-4 ([3]; 50 mg/kg per day, day 10): 0.77 cm^3 and 0.63 cm^3 and 0.64 cm^3 and 0.49 cm^3
- Tumor volume, mean ([3]; 50 mg/kg per day, day 10): 0.63 cm^3
- Tumor volume, individual mice No. 1-4 ([3]; 50 mg/kg per day, day 12): 0.99 cm^3 and 0.78 cm^3 and 0.80 cm^3 and 0.74 cm^3
- Tumor volume, mean ([3]; 50 mg/kg per day, day 12): 0.83 cm^3
- Tumor volume, individual mice No. 1-4 ([3]; 50 mg/kg per day, day 14): 1.20 cm^3 and 1.15 cm^3 and 0.97 cm^3 and 1.03 cm^3
- Tumor volume, mean ([3]; 50 mg/kg per day, day 14): 1.09 cm^3
- Tumor volume, individual mice No. 1-4 ([3]; 50 mg/kg per day, day 16): 1.53 cm^3 and 1.47 cm^3 and 1.31 cm^3 and 1.35 cm^3
- Tumor volume, mean ([3]; 50 mg/kg per day, day 16): 1.41 cm^3
- Tumor volume, individual mice No. 1-4 ([3]; 50 mg/kg per day, day 18): 2.08 cm^3 and 1.81 cm^3 and 1.54 cm^3 and 1.71 cm^3
- Tumor volume, mean ([3]; 50 mg/kg per day, day 18): 1.79 cm^3
- Tumor volume, individual mice No. 1-4 ([3]; 50 mg/kg per day, day 20): 2.59 cm^3 and 2.22 cm^3 and 1.77 cm^3 and 2.12 cm^3
- Tumor volume, mean ([3]; 50 mg/kg per day, day 20): 2.17 cm^3
- Tumor volume, individual mice No. 1-4 ([3]; 50 mg/kg per day, day 22): 3.39 cm^3 and 2.44 cm^3 and 2.19 cm^3 and 2.89 cm^3
- Tumor volume, mean ([3]; 50 mg/kg per day, day 22): 2.72 cm^3
- Tumor volume, individual mice No. 1-4 ([3]; 100 mg/kg per day, day 0): 0.10 cm^3 and 0.08 cm^3 and 0.04 cm^3 and 0.07 cm^3
- Tumor volume, mean ([3]; 100 mg/kg per day, day 0): 0.07 cm^3
- Tumor volume, individual mice No. 1-4 ([3]; 100 mg/kg per day, day 2): 0.12 cm^3 and 0.09 cm^3 and 0.08 cm^3 (2×)
- Tumor volume, mean ([3]; 100 mg/kg per day, day 2): 0.09 cm^3
- Tumor volume, individual mice No. 1-4 ([3]; 100 mg/kg per day, day 4): 0.13 cm^3 (2×) and 0.14 cm^3 and 0.10 cm^3
- Tumor volume, mean ([3]; 100 mg/kg per day, day 4): 0.13 cm^3
- Tumor volume, individual mice No. 1-4 ([3]; 100 mg/kg per day, day 6): 0.17 cm^3 (2×) and 0.15 cm^3 and 0.13 cm^3
- Tumor volume, mean ([3]; 100 mg/kg per day, day 6): 0.16 cm^3
- Tumor volume, individual mice No. 1-4 ([3]; 100 mg/kg per day, day 8): 0.26 cm^3 and 0.20 cm^3 and 0.25 cm^3 and 0.17 cm^3
- Tumor volume, mean ([3]; 100 mg/kg per day, day 8): 0.22 cm^3
- Tumor volume, individual mice No. 1-4 ([3]; 100 mg/kg per day, day 10): 0.39 cm^3 and 0.23 cm^3 (2×) and 0.31 cm^3
- Tumor volume, mean ([3]; 100 mg/kg per day, day 10): 0.29 cm^3
- Tumor volume, individual mice No. 1-4 ([3]; 100 mg/kg per day, day 12): 0.53 cm^3 and 0.31 cm^3 and 0.39 cm^3 and 0.25 cm^3
- Tumor volume, mean ([3]; 100 mg/kg per day, day 12): 0.37 cm^3
- Tumor volume, individual mice No. 1-4 ([3]; 100 mg/kg per day, day 14): 0.77 cm^3 and 0.42 cm^3 and 0.44 cm^3 and 0.27 cm^3
- Tumor volume, mean ([3]; 100 mg/kg per day, day 14): 0.47 cm^3
- Tumor volume, individual mice No. 1-4 ([3]; 100 mg/kg per day, day 16): 0.93 cm^3 and 0.49 cm^3 and 0.50 cm^3 and 0.32 cm^3
- Tumor volume, mean ([3]; 100 mg/kg per day, day 16): 0.56 cm^3
- Tumor volume, individual mice No. 1-4 ([3]; 100 mg/kg per day, day 18): 1.20 cm^3 and 0.57 cm^3 (2×) and 0.31 cm^3
- Tumor volume, mean ([3]; 100 mg/kg per day, day 18): 0.66 cm^3
- Tumor volume, individual mice No. 1-4 ([3]; 100 mg/kg per day, day 20): 1.27 cm^3 and 0.63 cm^3 and 0.65 cm^3 and 0.34 cm^3
- Tumor volume, mean ([3]; 100 mg/kg per day, day 20): 0.72 cm^3
- Tumor volume, individual mice No. 1-4 ([3]; 100 mg/kg per day, day 22): 1.39 cm^3 and 0.71 cm^3 and 0.80 cm^3 and 0.40 cm^3
- Tumor volume, mean ([3]; 100 mg/kg per day, day 22): 0.82 cm^3
- Inhibition of tumor growth in animals (in words) ([3]; H929 tumors in nude mice, 50 and 100 mg/kg per day, 22 days, dose-dependent, P<0.01 at day 22): significantly inhibit the tumor growth; also recorded: effective in inhibiting the growth of multiple myeloma
- IC50 [4]: 178 µM
- IC50 [5]: 188 µM
- IC50 [6]: 211 µM
- IC50 [7]: 156 µM
- Inhibition of growth of lymphoma in nude mice (in words) [8]: effectively inhibit the growth of lymphoma
- IC50 [9]: 76 µM
- IC50 [10]: 73 µM
- IC50 [11]: 179 µM
- IC50 [12]: 170 µM
- Inhibition of Ribonucleotide reductase (in words) [13]: inhibitor
- IC50 [14]: 117 µM
- IC50 [15]: 271 µM
